The values below come from publication PMC11672294, “The Antipsychotic Drug Aripiprazole Suppresses Colorectal Cancer by Targeting LAMP2a to Induce RNH1/miR‐99a/mTOR‐Mediated Autophagy and Apoptosis” (Advanced Science, 2024).

Counter-ions that a name gives are not always drawn.

The test system of the first series is HT29. The conditions noted are these: 72 h, relative to DMSO, 10 µM, Relative cell viability (%). In a few lines:
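Cells were exposed to drug for 72 h, then to WST-1 for 2 h at 37 °C, and absorbance was read at 450 nm as viability against DMSO treatment. In the screen, each compound was applied at 10 µM.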
In the case of `N#CC[C@H](C1CCCC1)n1cc(-c2ncnc3[nH]ccc23)cn1` [S-Ruxolitinib (INCB018424)], the “Relative cell viability (%)” value is 98.54%. Consider `COc1cc2nc(N3CCN(C(=O)C4CCCO4)CC3)nc(N)c2cc1OC` (stereo not shown) [Terazosin HCl], for which the “Relative cell viability (%)” value is listed as 142.1%.

Still in this series, the particulars now being: 72 h, relative to DMSO; 10 µM.
As to `CCS(=O)(=O)N1CCN(c2ccc(Nc3ncc(C(N)=O)c(NC4CC4)n3)cc2)CC1` [Cerdulatinib (PRT062070, PRT2070)], the “Relative cell viability (%)” value is recorded as 36.75%. On the same count and under the same terms, to `CCc1cc(/C(C)=N/OCc2ccc(C3CCCCC3)c(C(F)(F)F)c2)ccc1CN1CC(C(=O)O)C1` [BAF312 (Siponimod)] belongs 107.265%.

As for `CCCCN1CCCCC1C(=O)Nc1c(C)cccc1C` (stereo not shown) [Bupivacaine HCl], the “Relative cell viability (%)” value is given as 106.7%.

Take `O=C(NC1CCN(CCCCC2(C(=O)NCC(F)(F)F)c3ccccc3-c3ccccc32)CC1)c1ccccc1-c1ccc(C(F)(F)F)cc1` [Lomitapide Mesylate]: the “Relative cell viability (%)” value is reported as 0%. Same read-out and setting: to `Cc1c(Nc2ncccc2C(=O)O)cccc1C(F)(F)F` [Flunixin Meglumin] belongs 128.5%; to `CC1(C)CCC(C)(C)c2cc(NC(=O)c3ccc(C(=O)O)cc3)ccc21` [Tamibarotene], 94.85%; to `Oc1c(Cl)cc(Cl)c2cccnc12` [Chloroxine], 69.07%.

For `O=C1Nc2ccc(Cl)cc2[C@@](C#CC2CC2)(C(F)(F)F)O1` [Efavirenz], the “Relative cell viability (%)” value turned out to be 72.65%. Still for that read-out and setting: with `COc1ccc([C@@H]2Sc3ccccc3N(CCN(C)C)C(=O)[C@@H]2OC(C)=O)cc1` [Diltiazem HCl] the figure was 67.8%; with `C#C[C@]1(O)C=C[C@H]2[C@@H]3CCC4=CC(=O)CC[C@@H]4[C@H]3CC[C@@]21CC` [Gestodene], 69.63%; with `NC(CO)C(=O)NNCc1ccc(O)c(O)c1O` (stereo not shown) [Benserazide HCl], 108.4%. On the same count and under the same terms, with `CCN(CC)CCNC(=O)c1cc(Cl)c(N)cc1OC` [MetoclopraMide HCl] the figure was 75.76%. Same read-out and setting: to `CCC1(C)CC(=O)NC(=O)C1` [Bemegride] belongs 88.48%; to `Clc1ccc(COC(Cn2ccnc2)c2ccc(Cl)cc2Cl)c(Cl)c1` (stereo not shown) [Miconazole Nitrate], 184.3%. Regarding `CCOC(=O)C1=C(C)NC(C)=C(C(=O)OCC)C1c1ccccc1/C=C/C(=O)OC(C)(C)C` [Lacidipine], the “Relative cell viability (%)” value came to 79.32%. Still for that read-out and setting: with `CO[C@H]1/C=C/O[C@@]2(C)Oc3c(C)c(O)c4c(O)c(c(/C=N/N5CCN(C6CCCC6)CC5)c(O)c4c3C2=O)NC(=O)/C(C)=C\C=C\[C@H](C)[C@H](O)[C@@H](C)[C@@H](O)[C@@H](C)[C@H](OC(C)=O)[C@@H]1C` [Rifapentine] the figure was 69.07%.

Consider `COC(=O)N[C@H](C(=O)N1CC2(CC2)C[C@H]1c1ncc(-c2ccc3c(c2)C(F)(F)c2cc(-c4ccc5nc([C@@H]6[C@H]7CC[C@H](C7)N6C(=O)[C@@H](NC(=O)OC)C(C)C)[nH]c5c4)ccc2-3)[nH]1)C(C)C` [Ledipasvir (GS5885)], for which the “Relative cell viability (%)” value was found to be 80.34%. On the same count and under the same terms, with `Cc1ccc(-c2cc(C(F)(F)F)nn2-c2ccc(S(N)(=O)=O)cc2)cc1` [Celecoxib] the figure was 69.63%; with `OC(Cn1cncn1)(Cn1cncn1)c1ccc(F)cc1F` [Fluconazole], 66.51%. Same read-out and setting: with `COc1c2occc2cc2ccc(=O)oc12` [Methoxsalen] the figure was 170.4%; with `CC1(C)Cc2c(-c3ccccc3)c(-c3ccc(Cl)cc3)c(CC(=O)O)n2C1` [Licofelone], 137.9%; with `Cc1cncc(CN2CCC(=C3c4ccc(Cl)cc4CCc4cccnc43)CC2)c1` [Rupatadine Fumarate], 83.98%. Consider `Cc1oncc1C(=O)Nc1ccc(C(F)(F)F)cc1` [Leflunomide], for which the “Relative cell viability (%)” value was found to be 55.61%. The same measure, in the same setting: with `O=C(NCCO[N+](=O)[O-])c1cccnc1` [Nicorandil] the figure was 198.8%; with `c1cn2cc(-c3ccc4cn[nH]c4c3)nc(Nc3ccc(N4CCOCC4)cc3)c2n1` [GS-9973], 116.2%; with `Cc1c(O)cccc1C(=O)N[C@@H](CSc1ccccc1)[C@H](O)CN1C[C@H]2CCCC[C@H]2C[C@H]1C(=O)NC(C)(C)C` [Nelfinavir Mesylate], 23.94%. On the same count and under the same terms, with `N#C[C@@H]1CCCN1C(=O)CNC12CC3CC(CC(O)(C3)C1)C2` [Vildagliptin (LAF-237)] the figure was 108.7%. On the same count and under the same terms, with `N#CC(c1ccc(Cl)cc1)c1c(Cl)cc(-n2ncc(=O)[nH]c2=O)cc1Cl` (stereo not shown) [Diclazuril] the figure was 219%; with `O=C(O)c1ccccc1Nc1cccc(C(F)(F)F)c1` [Flufenamic acid], 80.303%; with `CO[C@H]1/C=C/O[C@@]2(C)Oc3c(C)c(O)c4c(O)c(c(/C=N/N5CCN(C)CC5)c(O)c4c3C2=O)NC(=O)/C(C)=C\C=C\[C@H](C)[C@H](O)[C@@H](C)[C@@H](O)[C@@H](C)[C@H](OC(C)=O)[C@@H]1C` [Rifampin], 76.69%. `NC(=O)[C@@H]1CCCN1C(=O)[C@H](Cc1cnc[nH]1)NC(=O)[C@@H]1CCC(=O)N1` [Protirelin]: the “Relative cell viability (%)” value was 76.5%.

For `OC[C@H]1OC(O)[C@H](O)[C@@H](O)[C@@H]1O` (stereo partly shown) [Dextrose], the “Relative cell viability (%)” value came to 126.7%. Consider `OC[C@H]1O[C@@H](c2ccc(Cl)c(Cc3ccc(O[C@H]4CCOC4)cc3)c2)[C@H](O)[C@@H](O)[C@@H]1O` [Empagliflozin (BI 10773)], for which the “Relative cell viability (%)” value was 75.21%.

Consider `CN(C)CCC(c1ccc(Cl)cc1)c1ccccn1` (stereo not shown) [Chlorpheniramine Maleate], for which the “Relative cell viability (%)” value came out at 102.1%. On to `CCN(CC)CCNC(=O)c1ccc(N)cc1` [Procainamide HCl], for which the “Relative cell viability (%)” value was determined as 73.94%.

Consider `Cc1cccc([C@H](C)c2cnc[nH]2)c1C` [Dexmedetomidine HCl (Precedex)], for which the “Relative cell viability (%)” value is on record as 113.8%. On the same count and under the same terms, to `CC1(C)[C@H](C(=O)O)N2C(=O)C[C@H]2S1(=O)=O` [Sulbactam] belongs 199.5%.

With `O=C(N/N=C/c1ccc([N+](=O)[O-])o1)c1ccc(O)cc1` [Nifuroxazide], the “Relative cell viability (%)” value was 43.03%. Same read-out and setting: with `O=C(Nc1c(Cl)cncc1Cl)c1ccc(OC(F)F)c(OCC2CC2)c1` [Roflumilast] the figure was 121.4%; with `Cc1ccc(Cl)c(Nc2ccccc2C(=O)O)c1Cl` [Meclofenamate Sodium], 83.03%. Same read-out and setting: with `CC(C)(C)C(=O)C(Oc1ccc(Cl)cc1)n1ccnc1` (stereo not shown) [Climbazole] the figure was 83.94%; with `CC(N)C12CC3CC(CC(C3)C1)C2` (stereo not shown) [Rimantadine], 127.5%; with `CC(C)[C@H](N)C(=O)OCCOCn1cnc2c(=O)[nH]c(N)nc21` [Valaciclovir HCl], 85.59%. Consider `CCOc1nc2cccc(C(=O)O)c2n1Cc1ccc(-c2ccccc2-c2noc(=O)[nH]2)cc1` [Azilsartan], for which the “Relative cell viability (%)” value was 73.79%.

Consider `C/C(=C\C(=O)OCCCCCCCCC(=O)O)C[C@@H]1OC[C@H](C[C@@H]2O[C@H]2[C@@H](C)[C@H](C)O)[C@@H](O)[C@H]1O` [Mupirocin], for which the “Relative cell viability (%)” value is 92.12%. On the same count and under the same terms, with `CC[C@@H](C(N)=O)N1CCCC1=O` [Levetiracetam] the figure was 78.97%. The same measure, in the same setting: to `CCC(=O)O[C@]1(C(=O)SCF)[C@H](C)C[C@H]2[C@@H]3C[C@H](F)C4=CC(=O)C=C[C@]4(C)[C@@]3(F)[C@@H](O)C[C@@]21C` [Fluticasone propionate] belongs 173.6%; to `C[C@H]1CNCCCN1S(=O)(=O)c1cccc2cncc(F)c12` [Ripasudil (K-115)], 118.8%; to `COc1ccc(C(=O)c2ccccc2)c(O)c1` [Oxybenzone], 118.8%.

Staying with this series, now noted: ht29 cells, 72 h, 10 µM.
In the case of `CC[C@H]1OC(=O)[C@H](C)[C@@H](O[C@H]2C[C@@](C)(OC)[C@@H](O)[C@H](C)O2)[C@H](C)[C@@H](O[C@@H]2O[C@H](C)C[C@H](N(C)C)[C@H]2O)[C@](C)(O)C[C@@H](C)[C@@H]2N[C@@H](COCCOC)O[C@H]([C@H]2C)[C@]1(C)O` [Dirithromycin], the “Relative cell viability (%)” value is 84.85%.
